In PMC11274801, “A Novel PDE10A Inhibitor for Tourette Syndrome and Other Movement Disorders” (Cells, 2024):

How the values were obtained:
primates = tested on: primates; design: method as in PMID 24490227; conditions: cited from earlier work
striatal cAMP and cGMP = test: cAMP and cGMP levels in the striatum; format: in vivo, rat; conditions: maximal dose 30 mg/kg
Method: The striatum was dissected, weighed, and then frozen in liquid nitrogen. For cyclic nucleotide measurements, frozen striatal tissue was homogenized in 5% trichloroacetic acid and centrifuged and the supernatant was collected. Supernatants were ether-washed and then the cAMP and cGMP levels in the aqueous phase were determined by enzyme immunoassay using kits from Cayman Chemical Co. (Ann Arbor, MI, USA)

[1] = tested on: patients with stage I–II HD; design: method as in earlier work; conditions: cited from earlier work
acute schizophrenia = conditions: press release ref 44; cited from earlier work
D2 receptor = conditions: 2–5 mg daily ref 54; cited from earlier work

For `Cn1cc(-c2ccncc2)c(-c2ccc(OCc3ccc4ccccc4n3)cc2)n1` [MP-10], the “effect on motivational aspects of behavior” value (primates) is listed as “dampen motivational aspects of behavior to a greater extent than a D2 antagonist”, the “effect on striatal cAMP and cGMP levels” value (striatal cAMP and cGMP) is listed as “increases” and the “primary outcome (UHDRS-TMS) and clinical global impression of improvement” value ([1]; 26-week phase 2, 272 patients ref 45) is listed as “no improvement in the primary outcome measure”. The “quantitative motor assessment (Q-motor)” value ([1]; 26-week phase 2 ref 45) was “dose-dependent improvement”.

For `Cc1ncc(C)n2nc(-c3ccn4cc(-c5ccccc5)nc4n3)nc12` [CPL500-036], the “efficacy in acute schizophrenia” value (acute schizophrenia) is given as “positive efficacy vs. placebo”.

In the case of `O=C(CCCN1CCC(O)(c2ccc(Cl)cc2)CC1)c1ccc(F)cc1` [haloperidol], the D2 occupancy (D2 receptor) is listed as 60–80%.
